{"source": "the supplement of paper PMC11208160", "data": [{"test": "recombinant UMI read abundance after kanamycin selection (control-corrected) (log10(CPM+1)); higher = more efficient recombination; extreme values may be limits of the assay; sequences stand for … in AGTGCAGAGAAAATCGGCCAGTTTTCTCTGCCTGCAGTCCGCATGCCGTGGGACCCCTTGGGTTCTAACCTGTTGCCTAGATTTATGCAGCGGACTGCCTTTCTCCCAAAGTGATAAACCGG…AGGTTGGTTTCACT; site = the 11-nt donor", "summary_of_the_method": "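Sequenced counts of recombinant UMIs were turned into CPM, averaged across replicates and scaled with control-derived factors. The reported figure is log10(CPM+1). Those UMIs, each 12 nt long, tagged donor and donor-binding-loop pairs on a plasmid with a promoterless kanamycin gene, screened as a pool in Escherichia coli with IPTG (0.07 mM) plus kanamycin or without selection.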", "values": [{"sequence": "GCGAAGACATGGACCGGTTTTCCCGGTAATCCGTATTTGCT (site GCGAACACTAG)", "recombinant UMI read abundance (log10)": 0.298}, {"sequence": "GCGAAGACATGGACCGGTTTTCCCGGTAATCCGTATTTGCT (site GCGAAGACTAG)", "recombinant UMI read abundance (log10)": 1.92}, {"sequence": "GCGAAGACATGGACCGGTTTTCCCGGTAATCCGTATTTGCT (site GCGAATACTAG)", "recombinant UMI read abundance (log10)": 0}, {"sequence": "GCGAAGACATGGACCGGTTTTCCCGGTAATCCGTATTTGGG (site GCGAAGACTCC)", "recombinant UMI read abundance (log10)": 0.479}, {"sequence": "GCGAAGACATGGACCGGTTTTCCCGGTAATCCGTATTTGGG (site GCGAAGCCTCC)", "recombinant UMI read abundance (log10)": 0}, {"sequence": "GCGAAGACATGGACCGGTTTTCCCGGTAATCCGTATTTGGG (site GCGAAGGCTCC)", "recombinant UMI read abundance (log10)": 0.287}, {"sequence": "GCGAAGACATGGACCGGTTTTCCCGGTAATCCGTATTTGGG (site GCGAAGTCTCC)", "recombinant UMI read abundance (log10)": 0.439}, {"sequence": "GCGAAGCCATGGACCGGTTTTCCCGGTAATCCGTATTTGGA (site GCGAAGCCTAC)", "recombinant UMI read abundance (log10)": 0.00917}, {"sequence": "GCGAAGCCATGGACCGGTTTTCCCGGTAATCCGTATTTGGA (site GCGAAGCCTCC)", "recombinant UMI read abundance (log10)": 0.00526}, {"sequence": "GCGAAGCCATGGACCGGTTTTCCCGGTAATCCGTATTTGGA (site GCGAAGCCTGC)", "recombinant UMI read abundance (log10)": 0}, {"sequence": "GCGAAGCCATGGACCGGTTTTCCCGGTAATCCGTATTTGGA (site GCGAAGCCTTC)", "recombinant UMI read abundance (log10)": 0.24}, {"sequence": "GCGAAGCCATGGACCGGTTTTCCCGGTAATCCGTATTTGGC (site GCGAAGCCTAC)", "recombinant UMI read abundance (log10)": 0.0106}, {"sequence": "GCGAAGCCATGGACCGGTTTTCCCGGTAATCCGTATTTGGC (site GCGAAGCCTCC)", "recombinant UMI read abundance (log10)": 0}, {"sequence": "GCGAAGCCATGGACCGGTTTTCCCGGTAATCCGTATTTGGC (site GCGAAGCCTGC)", "recombinant UMI read abundance (log10)": 0}, {"sequence": "GCGAAGCCATGGACCGGTTTTCCCGGTAATCCGTATTTGGC (site GCGAAGCCTTC)", "recombinant UMI read abundance (log10)": 0.664}, {"sequence": "GCGACACCATGGACCGGTTTTCCCGGTAATCCGTATTTGTC (site GCGACACCTGA)", "recombinant UMI read abundance (log10)": 0}, {"sequence": "GCGACATCATGGACCGGTTTTCCCGGTAATCCGTATTTGTG (site GCGACATCTCA)", "recombinant UMI read abundance (log10)": 1.78}, {"sequence": "GCGACCACATGGACCGGTTTTCCCGGTAATCCGTATTTGTT (site GCGACCACTAA)", "recombinant UMI read abundance (log10)": 0.823}, {"sequence": "GCGACGCCATGGACCGGTTTTCCCGGTAATCCGTATTTGTA (site GCAACGCCTTA)", "recombinant UMI read abundance (log10)": 0.542}, {"sequence": "GCGACGCCATGGACCGGTTTTCCCGGTAATCCGTATTTGTA (site GCCACGCCTTA)", "recombinant UMI read abundance (log10)": 0.0222}, {"sequence": "GCGACGCCATGGACCGGTTTTCCCGGTAATCCGTATTTGTA (site GCGACGCCTTA)", "recombinant UMI read abundance (log10)": 0.398}, {"sequence": "GCGACGCCATGGACCGGTTTTCCCGGTAATCCGTATTTGTA (site GCTACGCCTTA)", "recombinant UMI read abundance (log10)": 0.019}, {"sequence": "GCGACGGCATGGACCGGTTTTCCCGGTAATCCGTATTTGTC (site GCGACGGCTGA)", "recombinant UMI read abundance (log10)": 1.84}, {"sequence": "GCGAGCACATGGACCGGTTTTCCCGGTAATCCGTATTTGGC (site GCGAGCACTGC)", "recombinant UMI read abundance (log10)": 3.27}, {"sequence": "GCGAGCGCATGGACCGGTTTTCCCGGTAATCCGTATTTGTC (site GCGAGCGCTGA)", "recombinant UMI read abundance (log10)": 2.69}, {"sequence": "GCGAGGCCATGGACCGGTTTTCCCGGTAATCCGTATTTGGG (site GCGAAGCCTCC)", "recombinant UMI read abundance (log10)": 0.0133}, {"sequence": "GCGAGGCCATGGACCGGTTTTCCCGGTAATCCGTATTTGGG (site GCGACGCCTCC)", "recombinant UMI read abundance (log10)": 0.022}, {"sequence": "GCGAGGCCATGGACCGGTTTTCCCGGTAATCCGTATTTGGG (site GCGAGGCCTCC)", "recombinant UMI read abundance (log10)": 0.0117}, {"sequence": "GCGAGGCCATGGACCGGTTTTCCCGGTAATCCGTATTTGGG (site GCGATGCCTCC)", "recombinant UMI read abundance (log10)": 0.0249}, {"sequence": "GCGAGGGCATGGACCGGTTTTCCCGGTAATCCGTATTTGCC (site GCGAGGGCTGG)", "recombinant UMI read abundance (log10)": 2.23}, {"sequence": "GCGATAGCATGGACCGGTTTTCCCGGTAATCCGTATTTGTC (site GCGATAGCTGA)", "recombinant UMI read abundance (log10)": 2.34}, {"sequence": "GCGCCCACATGGACCGGTTTTCCCGGTAATCCGTATTTGGA (site GCGCCCACTTC)", "recombinant UMI read abundance (log10)": 0.365}]}]}
